Data: patent publication US20110124607A1, “COMPOSITION FOR REGULATION CELLULAR SENESCENCE COMPRISING LYSOPHOSPHATIDIC ACID AND INHIBITOR OF ADENYLYL CYCLASE AS ACTIVE INGREDIENTS” (priority 2008, published 2011)

How the values were obtained:
Assay type in all cases: cell-based, human
p-Thr172-AMPKα = assay: Immuno-blotting of p-Thr172-AMPKα; settings: for p-Thr172-AMPKα expression after suppressing PKA: senescent cells pre-treated with 10 mM PKA inhibitor Rp-cAMP for one hour; for Thr172-AMPKα phosphorylation: 30 μM LPA, 300 μM ACI, 10 mM AMPKI, 10 mM AICAR, up to day 4
Experimental: (A) and (B): Young and senescent cells were serum-starved for 2 days, followed by treatment with 10 mM of AMPK inhibitor […]) or 10 mM of AMPK activator AICAR(B) for 4 days. Proteins were extracted from the treated cells and the levels of AMPKα and p-Thr172-AMPKα, total p53, p-Ser15-p53 and […] measured by immuno-blotting. (C) and (D): Young cells (C) and senescent cells (D) were treated with 10 mM AMPKI or 10 mM AICAR and cultured for 4 days, followed by measurement of cell proliferation by cell counting. At this time, the experiment was repeated three times (p<0.001). (A) and (B) are photographs illustrating the results of immuno-blotting. Precisely, sub-cultured young cells (PD 18: A) and senescent cells (PD 64: B) were treated with 30 μM of LPA […] and ACI singly or together, followed by further culture for 1, 2, and 4 days. Proteins were extracted from the cultured cells and the levels of AMPKα, […] β-actin were quantified by immuno-blotting. (A) and (B) are photographs illustrating the results of immuno-blotting. Precisely, senescent cells (PD 64) were pre-treated with 10 mM of PKA inhibitor Rp-cAMP for one hour, followed by treatment with LPA(A) or ACI(B). After culturing the cells for 1, 2, and 4 days, proteins were extracted from the cultured cells and the levels of AMPKα, […] β-actin were quantified by immuno-blotting using 45 μg of the protein. To analyse protein expression, human fibroblasts were lysed in cold lysis buffer (25 mM Hepes, pH 8.0, 150 mM NaCl, 1 mM EDTA, 1 mM Na3VO4, 1 mM NaF, 1% Triton X-100 and protease inhibitors), followed by centrifugation at 4° C. at 9,000 rpm for 10 minutes to obtain supernatant. Protein in the extract was quantified […]. SDS-PAGE electrophoresis was performed with equal amount of the protein (45 μg) to separate. The separated protein was transferred onto NC membrane from the electrophoresis gel. Non-specific protein binding was blocked by blocking the blot (transferred NC membrane) using TTBS […] containing 5% skim milk for one hour. Then, antigen-antibody reaction was induced with diluted primary antibody at 4° C. for overnight. The blot was washed with TTBS, followed by reaction with horseradish peroxidase conjugated anti-IgGs diluted in TTBS containing 5% skim milk (1:5000) at room temperature for one hour. The blot was washed again with TTBS to eliminate non-specific binding of antigen-antibody. Photographs were developed/printed on X-ray film (Kodak) using ECL kit (Pierce) containing peroxidase substrate to identify each protein.

p-Ser485/491-AMPKα = assay: Immuno-blotting of p-Ser485/491-AMPKα; settings: for p-Ser485/491-AMPKα expression after suppressing PKA: senescent cells pre-treated with 10 mM PKA inhibitor Rp-cAMP for one hour; for Ser485/491-AMPKα phosphorylation: 30 μM LPA, 300 μM ACI, up to day 4
Experimental: (A) and (B) are photographs illustrating the results of immuno-blotting. Precisely, sub-cultured young cells (PD 18: A) and senescent cells (PD 64: B) were treated with 30 μM of LPA […] and ACI singly or together, followed by further culture for 1, 2, and 4 days. Proteins were extracted from the cultured cells and the levels of AMPKα, p-Thr172-AMPKα, p-Ser485/491-AMPKα, p53, p-Ser15-p53, p21waf1/cip1 and β-actin were quantified by immuno-blotting.
(A) and (B) are photographs illustrating the results of immuno-blotting. Precisely, senescent cells (PD 64) were pre-treated with 10 mM of PKA inhibitor Rp-cAMP for one hour, followed by treatment with LPA(A) or ACI(B). After culturing the cells for 1, 2, and 4 days, proteins were extracted from the cultured cells and the levels of AMPKα, p-Thr172-AMPKα, p-Ser485/491-AMPKα, p53, p-Ser15-p53, p21waf1/cip1 and β-actin were quantified by immuno-blotting using 45 μg of the protein.
(§1) To analyse protein expression, human fibroblasts were lysed in cold lysis buffer (25 mM Hepes, pH 8.0, 150 mM NaCl, 1 mM EDTA, 1 mM Na3VO4, 1 mM NaF, 1% Triton X-100 and protease inhibitors), followed by centrifugation at 4° C. at 9,000 rpm for 10 minutes to obtain supernatant. Protein in the extract was quantified […]. SDS-PAGE electrophoresis was performed with equal amount of the protein (45 μg) to separate. The separated protein was transferred onto NC membrane from the electrophoresis gel. Non-specific protein binding was blocked by blocking the blot (transferred NC membrane) using TTBS […] containing 5% skim milk for one hour. Then, antigen-antibody reaction was induced with diluted primary antibody at 4° C. for overnight. The blot was washed with TTBS, followed by reaction with horseradish peroxidase conjugated anti-IgGs diluted in TTBS containing 5% skim milk (1:5000) at room temperature for one hour. The blot was washed again with TTBS to eliminate non-specific binding of antigen-antibody. Photographs were developed/printed on X-ray film (Kodak) using ECL kit (Pierce) containing peroxidase substrate to identify each protein.

p-Ser431-LKB1 = assay: Immuno-blotting of p-Ser431-LKB1; settings: 30 μM LPA, 300 μM ACI, 1, 2, 4 days
Experimental: FIG. 8 is a set of photographs illustrating the effects of LPA and ACI on LKB1 phosphorylation in senescent cells. Precisely, sub-cultured young cells (PD 18) and senescent cells (PD64) were treated with 30 μM of LPA or 300 μM of LPA and ACI singly or together. After culturing the cells for 1, 2, and 4 days, proteins were extracted from the cultured cells and the levels of LKB1, p-Ser431-LKB1 and β-actin were quantified by immuno-blotting using 45 μg of the protein.
as §1
It has been recently discovered that the tumor suppressor gene LKB1 is a member of AMPKK family (Hawley et al., 2003; Shaw et al., 2004; Woods et al., 2003a). Ser431-LKB1 phosphorylation promotes cell growth in the activated form of LKB1 (Sapkota et al., 2001). So, in this experiment, it was examined what effect the single treatment or co-treatment of LPA and ACI has on the expressions of p-Ser431-LKB1, LKB1 and β-actin (FIG. 8). […] Meanwhile, LKB1 expression therein was not changed.

| Molecule | p-Thr172-AMPKα expression after suppressing PKA (p-Thr172-AMPKα) | Thr172-AMPKα phosphorylation (p-Thr172-AMPKα; senescent cells) | Thr172-AMPKα phosphorylation (p-Thr172-AMPKα; young cells) | p-Ser485/491-AMPKα expression after suppressing PKA (p-Ser485/491-AMPKα) | Ser485/491-AMPKα phosphorylation (p-Ser485/491-AMPKα; senescent cells) | Ser485/491-AMPKα phosphorylation (p-Ser485/491-AMPKα; young cells) | Ser431-LKB1 phosphorylation (p-Ser431-LKB1; senescent cells) | Ser431-LKB1 phosphorylation (p-Ser431-LKB1; young cells) |
| --- | --- | --- | --- | --- | --- | --- | --- | --- |
| Nc1ncnc2c1ncn2C1CCCO1 (stereo not shown) [ACI, 9-(tetrahydro-2′-furyl)adenine] | not changed | reduced | began to increase | not changed | did not affect | reduced | reduced | increased |
| lysophosphatidic acid [LPA] | not changed at all | reduced | reduced | not changed at all | gradually increased | reduced | gradually increased | gradually reduced |
